According to patent publication US20240139125A1 (INDUSTRIAL COOPERATION FOUNDATION JEONBUK NATIONAL …, priority 2020, published 2024):
Where a name gives a salt, the structure may show the parent alone.

Experiments:
[1] = Cell viability for BIA and analogues, HT1080 cell line; format: cell-based; details: human, HT1080 fibrosarcoma cells; for viability at 5 µM: HT1080, 5 uM; for viability at 10 µM: HT1080, 10 uM
Protocol: HT1080 MDA-MB-231, SKBR3 and MCF7 cell lines were cultured in a 37° C., 5% CO2 incubator in a medium with 10% Fetal Bovine Serum, 1% penicillin and streptomycin (100 U) added to DMEM.
(§1) The compound prepared in Example 15 was treated with HT1080 fibrosarcoma cell line at 5 μM and 10 μM and cell viability was measured. In addition, the compound prepared in Example 15 on the DU145 prostate cancer cell line was treated with 10 μM, 20 μM, and 30 μM and cell viability was measured (see Table 2, Table 3).

[2] = Cell viability for BIA and analogues, DU145 cell line; format: cell-based; details: human; for viability at 10 µM: DU145, 10 uM; for viability at 20 µM: DU145, 20 uM; for viability: DU145, 50 rpm
Protocol: as §1

Row | SMILES | viability at 5 µM [1] [%] | viability at 10 µM [1] [%] | viability at 10 µM [2] [%] | viability at 20 µM [2] [%] | viability [2] [%]
1 | Nc1ccccc1-c1cc(-c2cccc(C(F)(F)F)c2)ncn1 | 99.6 | 97.3 | 95.3 | 87.8 | 74.8
2 | Nc1ccccc1C(=O)/C=C/c1ccccc1 [GM-90130, (E)-1-(2-aminophenyl)-3-phenylprop-2-en-1-one] | 99.5 | 31.7 | 78.7 | 79.4 | 48.3
3 | COc1cccc(/C=C/C(=O)c2ccccc2N)c1 [GM-90131, (E)-1-(2-aminophenyl)-3-(3-methoxyphenyl)prop-2-en-1-one] | 101 | 37.4 | 81.5 | 74 | 33.2
4 | Nc1ccccc1C(=O)/C=C/c1cccc(Br)c1 [GM-90132, (E)-1-(2-aminophenyl)-3-(3-bromophenyl)prop-2-en-1-one] | 100 | 30.9 | 81.5 | 71.2 | 19.9
5 | Nc1ccccc1C(=O)/C=C/c1ccc([N+](=O)[O-])cc1 [GM-90133, (E)-1-(2-aminophenyl)-3-(4-nitrophenyl)prop-2-en-1-one] | 101 | 54.9 | 50.5 | 35.2 | 26.8
6 | COc1ccccc1C(=O)/C=C/c1cccc([N+](=O)[O-])c1 [GM-90134, (E)-1-(2-methoxyphenyl)-3-(3-nitrophenyl)prop-2-en-1-one] | 99.1 | 96.6 | 31.5 | 25.4 | 22.8
7 | O=C(/C=C/c1cccc([N+](=O)[O-])c1)c1ccccc1O [GM-90135, (E)-1-(2-hydroxyphenyl)-3-(3-nitrophenyl)prop-2-en-1-one] | 99.9 | 96.8 | 88.5 | 87.3 | 64.5
8 | Nc1ccccc1C(=O)/C=C/c1ccc(OC(F)(F)F)cc1 [GM-90222, (E)-1-(2-aminophenyl)-3-(4-(trifluoromethoxy)phenyl)prop-2-en-1-one] | 109 | 92 | 40.7 | 31.3 | 28.9
9 | Nc1ccccc1C(=O)/C=C/c1ccc(F)cc1F [GM-90223, (E)-1-(2-aminophenyl)-3-(2,4-difluorophenyl)prop-2-en-1-one] | 93.8 | 86 | 26.5 | 26.3 | 21.1
10 | CCOc1cc(F)ccc1/C=C/C(=O)c1ccccc1N [GM-90224, (E)-1-(2-aminophenyl)-3-(2-ethoxy-4-fluorophenyl)prop-2-en-1-one] | 108 | 99.7 | 90.5 | 90 | 75.8
11 | Nc1ccccc1C(=O)/C=C/c1ccc2ccccc2c1 [GM-90225, (E)-1-(2-aminophenyl)-3-(naphthalen-2-yl)prop-2-en-1-one] | 70.5 | 43.5 | 87.4 | 79.4 | 71.2
12 | Nc1ccccc1C(=O)/C=C/c1ccc(C(F)(F)F)cc1 [GM-90226, (E)-1-(2-aminophenyl)-3-(4-(trifluoromethyl)phenyl)prop-2-en-1-one] | 83.9 | 15.4 | 68.1 | 46.8 | 11.8
13 | Cc1ccc(/C=C/C(=O)c2ccccc2N)cc1 [GM-90227, (E)-1-(2-aminophenyl)-3-(p-tolyl)prop-2-en-1-one] | 108 | 96.3 | 43.3 | 36.1 | 28.2
14 | CCOc1ccc([N+](=O)[O-])cc1/C=C/C(=O)c1ccccc1N [GM-90229, (E)-1-(2-aminophenyl)-3-(2-ethoxy-5-nitrophenyl)prop-2-en-1-one] | 64.4 | 15.7 | 53.1 | 40.5 | 21.1
15 | CCOc1ccc([N+](=O)[O-])cc1C(O)CC(=O)c1ccccc1N (centres unmarked) [GM-90230, 1-(2-aminophenyl)-3-(2-ethoxy-5-nitrophenyl)-3-hydroxypropan-1-one] | 108 | 98.8 | 66.3 | 29.1 | 29.3
16 | CC(C)(C)c1ccc(/C=C/C(=O)c2ccccc2N)cc1 [GM-90243, (E)-1-(2-aminophenyl)-3-(4-(tert-butyl)phenyl)prop-2-en-1-one] | 66.8 | 39.2 | 31.8 | 28.2 | 14.3

Row | SMILES | viability at 5 µM [1] [%] | viability at 10 µM [1] [%] | viability at 10 µM [2] [%] | viability at 20 µM [2] [%] | viability [2] [%]
17 | COc1cc(N)c(C(=O)/C=C/c2cccc(Br)c2)cc1OC [GM-90255, (E)-1-(2-amino-4,5-dimethoxyphenyl)-3-(3-bromophenyl)prop-2-en-1-one] | 88.1 | 33.4 | 88.7 | 70.2 | 66.4
18 | COc1cccc(/C=C/C(=O)c2cc(OC)c(OC)cc2N)c1 [GM-90256, (E)-1-(2-amino-4,5-dimethoxyphenyl)-3-(3-methoxyphenyl)prop-2-en-1-one] | 82.4 | 46.3 | 76.3 | 60.2 | 54.9
19 | Nc1ccccc1C(=O)/C=C/c1cc(O)cc(Br)c1 [GM-90281, (E)-1-(2-aminophenyl)-3-(3-bromo-5-hydroxyphenyl)prop-2-en-1-one] | 11.4 | 11.1 | 77.4 | 76.4 | 67
20 | N#Cc1cccc(/C=C/C(=O)c2ccccc2N)c1 [GM-90282, (E)-3-(3-(2-aminophenyl)-3-oxoprop-1-en-1-yl)benzonitrile] | 12.2 | 7.14 | 72.9 | 53.4 | 9.57
21 | Nc1ccccc1C(=O)/C=C/c1cccc(C(F)(F)F)c1 [GM-90283, (E)-1-(2-aminophenyl)-3-(3-(trifluoromethyl)phenyl)prop-2-en-1-one] | 18.1 | 11.9 | 59.9 | 33.1 | 22.9
22 | Cc1cccc(/C=C/C(=O)c2ccccc2N)c1 [GM-90284, (E)-1-(2-aminophenyl)-3-(m-tolyl)prop-2-en-1-one] | 86.4 | 18.8 | 88.4 | 81 | 79
23 | Nc1ccccc1C(=O)/C=C/c1cccnc1 [GM-90285, (E)-1-(2-aminophenyl)-3-(pyridin-3-yl)prop-2-en-1-one] | 71.5 | 8.35 | 83.5 | 82.8 | 78.8
24 | COc1ccc(C(=O)/C=C/c2cccc([N+](=O)[O-])c2)c(N)c1 [GM-90297, (E)-1-(2-amino-4-methoxyphenyl)-3-(3-nitrophenyl)prop-2-en-1-one] | 93.3 | 18.2 | 85.7 | 87.2 | 83
25 | CNC(=O)c1cccc(/C=C/C(=O)c2ccccc2N)c1 [GM-90300, (E)-3-(3-(2-aminophenyl)-3-oxoprop-1-en-1-yl)-N-methyl benzamide] | 99.5 | 23.4 | 62.6 | 58.5 | 54.5
26 | Nc1cccc(/C=C/C(=O)c2ccccc2N)c1 [GM-90315, (E)-1-(2-aminophenyl)-3-(3-aminophenyl)prop-2-en-1-one Hydrochloride] | 41.1 | 11.2 | 98 | 97.9 | 88.9
27 | Nc1ccccc1C(=O)/C=C/c1cc(F)c(O)c(F)c1 [GM-90316, (E)-1-(2-aminophenyl)-3-(3,5-difluoro-4-hydroxyphenyl)prop-2-en-1-one] | 101 | 67.8 | 87.4 | 60 | 38.4
28 | Nc1ccccc1C(=O)/C=C/c1cccc(Cl)c1 [GM-90317, (E)-1-(2-aminophenyl)-3-(3-chlorophenyl)prop-2-en-1-one] | 46.8 | 14.4 | 32.4 | 28.1 | 11.9
29 | COc1cc(N)c(C(=O)/C=C/c2cccc(C#N)c2)cc1OC [GM-90319, (E)-3-(3-(2-amino-4,5-dimethoxyphenyl)-3-oxoprop-1-en-1-yl)benzonitrile] | 46.6 | 9.94 | 110 | 88.1 | 85.8
30 | COc1cc(N)c(C(=O)/C=C/c2cccc(C(F)(F)F)c2)cc1OC [GM-90320, (E)-1-(2-amino-4,5-dimethoxyphenyl)-3-(3-(trifluoromethyl)phenyl)prop-2-en-1-one] | 94.5 | 62.7 | 89.1 | 89.1 | 82.4
31 | COc1cc(N)c(C(=O)/C=C/c2cc(O)cc(Br)c2)cc1OC [GM-90321, (E)-1-(2-amino-4,5-dimethoxyphenyl)-3-(3-bromo-5-hydroxyphenyl)prop-2-en-1-one] | 61.2 | 21.2 | 83.6 | 81.8 | 84.8
